Each structure is given as a SMILES string.

For one experiment, the system named is LH. As to the kind of experiment: LH expression by RT-PCR in pituitary gland cells. The format is cell-based, mouse. As to conditions: 50 nM, vs untreated. As to the method:
FIGS. 29A, 29B, 29C and 29D: The embodied compounds affect the expression of gonadotropin hormones in pituitary gland cells. Cells (L T2) derived from the mouse pituitary gland were assessed for their secretion of LH and FSH at 6 (FIGS. 29A and 29B) and 12 hours (FIGS. 29C and 29D) following treatment with the indicated embodied compounds (50 nM). FSH and LH expression was determined by RT-PCR, and quantified from 5 different experiments, as assessed for significance, using the t test, one way ANOVA.

The target in another experiment is T1, telomerase (Mus musculus, UniProt O70372).
T1 construct: the ovaries were removed, and proteins extract used for measuring telomerase activity by TRAP assay; from tissue; host or cells: ovary of female ICR mice
T1 sequence (O70372 1-1122): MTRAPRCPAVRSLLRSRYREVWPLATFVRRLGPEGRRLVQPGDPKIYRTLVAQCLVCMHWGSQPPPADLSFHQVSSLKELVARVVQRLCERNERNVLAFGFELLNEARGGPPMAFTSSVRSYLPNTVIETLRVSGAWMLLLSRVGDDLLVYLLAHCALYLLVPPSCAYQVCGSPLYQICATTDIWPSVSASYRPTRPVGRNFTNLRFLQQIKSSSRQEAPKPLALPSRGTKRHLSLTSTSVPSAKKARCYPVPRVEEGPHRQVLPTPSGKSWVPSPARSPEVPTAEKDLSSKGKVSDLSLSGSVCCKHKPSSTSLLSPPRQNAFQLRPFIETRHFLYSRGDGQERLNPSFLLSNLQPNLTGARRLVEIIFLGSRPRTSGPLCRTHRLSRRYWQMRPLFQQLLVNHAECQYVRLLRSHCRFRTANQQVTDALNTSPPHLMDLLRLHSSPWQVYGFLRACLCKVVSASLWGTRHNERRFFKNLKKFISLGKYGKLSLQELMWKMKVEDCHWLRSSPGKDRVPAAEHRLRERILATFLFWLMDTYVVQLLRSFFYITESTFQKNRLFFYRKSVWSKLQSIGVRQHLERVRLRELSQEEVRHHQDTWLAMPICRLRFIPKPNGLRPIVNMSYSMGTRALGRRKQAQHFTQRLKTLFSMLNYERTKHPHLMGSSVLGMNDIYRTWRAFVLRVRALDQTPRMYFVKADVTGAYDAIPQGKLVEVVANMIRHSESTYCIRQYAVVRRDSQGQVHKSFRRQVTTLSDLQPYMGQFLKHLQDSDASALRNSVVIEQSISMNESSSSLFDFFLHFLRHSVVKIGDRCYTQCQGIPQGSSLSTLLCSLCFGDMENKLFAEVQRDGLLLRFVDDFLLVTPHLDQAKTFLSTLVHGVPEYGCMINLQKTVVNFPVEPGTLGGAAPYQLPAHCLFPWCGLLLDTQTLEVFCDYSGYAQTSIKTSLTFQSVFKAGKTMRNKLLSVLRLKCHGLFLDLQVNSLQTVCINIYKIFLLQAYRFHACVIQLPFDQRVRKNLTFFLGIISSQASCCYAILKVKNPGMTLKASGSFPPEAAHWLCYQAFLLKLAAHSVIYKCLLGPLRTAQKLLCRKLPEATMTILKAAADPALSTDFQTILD
As to the kind of experiment: Telomerase activity in mouse ovary by TRAP assay after s.c. injection. Type of experiment: in vivo. As to conditions: single dose 6 mg/Kg s.c., 12 hours. As to the method:
The ovaries were homogenized and centrifuged at 1200 RPM at 4° C. for 10 min, then suspended in CHAPS buffer (10 mM Tris-HCl pH-7.0, 1 mM MgCl2, 1 mM EDTA […], 0.1 mM PMSF, 0.5% 3 [(3 Cholamidopropyl)dimethylammonio]-propanesulfonic acid [CHAPS] and 10% glycerol) on ice for 30 min and centrifuged again at 13500 RPM at 4° C. for 30 min, the supernatant was collected. Total proteins concentration was determined using the Bio-Rad protein assay kit (Bio-Rad Laboratories, Germany).
Telomerase activity in mice ovary was evaluated by a slight modification of the TRAP assay [Grin, Y., T. Admoni, and E. Priel, Telomerase activity in the various regions of mouse brain: non-radioactive telomerase repeat amplification protocol (TRAP) assay. J Vis Exp, 2014 (91): p. e51865]. […] These products were separated on a 4.5% high-resolution agarose mini-gel and detected with Gel-Red solution (X10000 stock solution diluted to X3 working solution with 0.01M NaCl) for 20 minutes. […] Quantification of Telomerase Activity
TRAP assay products were quantified by densitometric analysis using the EZQuant software (EZQuant Ltd. Rehovot, Israel) and normalized to IS (Internal standard). […] The data which were normalized to the IS were calculated as % from the positive control values in each experiment. […]

As for `CC(c1cc(Br)c(O)c(Br)c1)(c1cc(Br)c(O)c(Br)c1)c1cc(Br)c(O)c(Br)c1` [Compound 68], in the experiment with LH (12 hours), the LH expression result is on record as “increased LH production above untreated levels”. At telomerase (all examined ages (10 days, 18 days, 1 month, 3 months)), the “increase of telomerase activity in mouse ovary” value is recorded as “up to 1.5 fold”.
As to `CCOCc1cc(C(C)(c2cc(COCC)c(O)c(COCC)c2)c2cc(COCC)c(O)c(COCC)c2)cc(COCC)c1O` [Compound 79], the LH expression entry in the experiment with LH (6 hours post treatment) is listed as “increased expression of LH above untreated levels”. The “telomerase activity in mouse ovary at various ages” value on telomerase (ages 10 days to 3 months) is reported as “significantly increased telomerase activity only in the ovary of 3 months old mouse”.

The values are drawn from patent publication US12576047B2, “Telomerase activating compounds for use in fertility and related applications” (Neuromagen Pharma Ltd, priority 2017, dated 2026).
